Experiment [1] deals with T1, CDK2/CycA (Homo sapiens, UniProt P24941).
T1 construct: host or cells: Sf9 insect cells, baculovirus
In words: In vitro kinase inhibition assay, CDK2/CycA. It is filed as biochemical. Here is the method:
(§1) In vitro kinase inhibition assays may be performed according to the following protocol:
(§2) Compounds are used as 1×10^−02 M stock solutions in 100% DMSO, 100 μl each in column 2 of three 96-well V-shaped microtiter plates (in the following, said plates are referred to as “master plates”).
(§3) Subsequently, the 1×10^−02 M stock solutions in column 2 of the master plates are subjected to a serial, semi-logarithmic dilution using 100% DMSO as a solvent, resulting in 10 different concentrations, the dilution endpoint being 3×10^−07 M/100% DMSO in column 12. Column 1 and 7 are filled with 100% DMSO as controls. […]
(§4) For the determination of inhibitory profiles, the following protein kinases were used: CDK2/CycA, CDK4/CycD1, CDK6/CycD1 and CDK9/CycT. […] The purity of each kinase is determined by SDS-PAGE/silver staining and the identity of each kinase is verified by western blot analysis with kinase specific antibodies or by mass spectroscopy. […]
(§5) Reaction mixtures are incubated at 30° C. for 80 minutes. […] Incorporation of ^33P is determined with a microplate scintillation counter (Microbeta, Wallac). […]
(§6) The median value of the counts in column 1 (n=8) of each assay plate is defined as “low control”. This value reflects unspecific binding of radioactivity to the plate in the absence of a protein kinase but in the presence of the substrate. […]

Experiment [2] concerns the target T2, CDK6/CycD1 (Homo sapiens, UniProt Q00534).
T2 construct: host or cells: Sf9 insect cells, baculovirus
In words: In vitro kinase inhibition assay, CDK6/CycD1. Type of experiment: biochemical. Here is the method: as §1, §2, §3, §4, §5, §6

Experiment [3] deals with T3, CDK4/CycD1 (Homo sapiens, UniProt P11802).
T3 construct: host or cells: Sf9 insect cells, baculovirus
In words: In vitro kinase inhibition assay, CDK4/CycD1. It is filed as biochemical. Here is the method:
as §1, §2, §3, §4, §5, §6

Experiment [4] has as its system carrageenan-treated mice. The experiment is described as follows: Carrageenan assay, paw edema. It is filed as in vivo. The note with it: 30 mg/kg i.p. 30 min prior to carrageenan. From the text:
The model of carrageenan-induced paw edema constitutes a standard laboratory assay used to predict anti-inflammatory activity of therapeutically active compounds and reduction of inflammation-induced pain perception achieved by administration of therapeutically active compounds.
The basic measurement constitutes in the measurement of edema size and of mechanical as well as thermal hypersensitivity in response to irritants, such as carrageenan.
Inflammation and subsequent inflammatory pain is induced by subcutaneous injection of 25 μl of 1% carrageenan (in saline) into the hind paw (ipsi-lateral paw) of mice. Groups of 10 mice each received compound A, 30 mg/kg body weight, vehicle (DMA/Labrafil; 10:90) and saline (physiol. NaCl) by i.p. injection 30 min prior to carrageenan injection.
Paw edema induced by carrageenan injection was detected by increased paw size measured from dorsal to plantar at the metatarsus region of the injected (ipsi-lateral) paws. Sizes of ipsi- and contra-lateral paws (see FIG. 6, paw size [mm]) served as surrogate markers for inflammation and were measured at several time points after carrageenan injection: 1 h before injection (−1), immediately after injection, 1 h (1), 2 h (2), 4 h (4), 5 h (5), 6 h (6), 7 h (7), 24 h (24), 48 h (48), 72 h (72), 96 h (96), and 98 h (98) after injection. […]
(In the carrageenan paw model, swelling and tenderness develop within hours.)

The values below come from US20090221581A1, “Methods of treating pain” (priority 2005, published 2009).

T3 sequence (P11802 whole entry): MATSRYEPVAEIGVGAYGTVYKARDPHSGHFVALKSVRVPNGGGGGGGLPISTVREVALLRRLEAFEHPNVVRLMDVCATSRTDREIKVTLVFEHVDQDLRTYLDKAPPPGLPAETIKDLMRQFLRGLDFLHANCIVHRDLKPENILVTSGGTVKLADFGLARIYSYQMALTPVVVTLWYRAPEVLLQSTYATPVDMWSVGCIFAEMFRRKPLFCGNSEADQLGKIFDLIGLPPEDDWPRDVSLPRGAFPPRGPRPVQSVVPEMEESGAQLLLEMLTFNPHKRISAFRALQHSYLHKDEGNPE
T3 sequence (P24385 whole entry partner): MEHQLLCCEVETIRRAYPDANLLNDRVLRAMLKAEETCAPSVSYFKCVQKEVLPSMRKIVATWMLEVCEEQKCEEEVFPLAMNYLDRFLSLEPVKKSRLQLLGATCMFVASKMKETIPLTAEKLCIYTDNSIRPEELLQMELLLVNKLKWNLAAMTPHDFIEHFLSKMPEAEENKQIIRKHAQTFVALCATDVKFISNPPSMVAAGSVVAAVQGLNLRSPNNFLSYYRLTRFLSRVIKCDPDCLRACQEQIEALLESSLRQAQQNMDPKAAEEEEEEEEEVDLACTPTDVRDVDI
T2 sequence (Q00534 whole entry): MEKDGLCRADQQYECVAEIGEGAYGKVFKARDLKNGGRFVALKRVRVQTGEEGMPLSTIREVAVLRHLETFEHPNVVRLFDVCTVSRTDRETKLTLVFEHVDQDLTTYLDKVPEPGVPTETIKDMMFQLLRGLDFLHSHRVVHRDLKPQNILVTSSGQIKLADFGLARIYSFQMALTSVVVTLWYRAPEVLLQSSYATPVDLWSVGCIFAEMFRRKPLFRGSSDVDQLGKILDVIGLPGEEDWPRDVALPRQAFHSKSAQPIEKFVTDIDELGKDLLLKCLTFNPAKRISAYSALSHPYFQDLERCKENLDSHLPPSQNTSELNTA
T2 sequence (P24385 whole entry partner): as the sequence (P24385 whole entry partner) above

On to `COc1ccccc1-c1cc(Nc2cccc(S(N)(=O)=O)c2)ncn1` [Compound A], for which the IC50 in experiment [1] was found to be 10100 nM; in experiment [2] it was 1910 nM; in experiment [3], 2790 nM. The “increase in paw size” value in experiment [4] (24 h after carrageenan injection (control mice 30%)) amounted to 8%; in experiment [4] (within the first hour after carrageenan injection), 10%.

Usually IC50 stands for the point on the concentration scale where inhibition reaches its midpoint. The low end stands for greater potency, the high end for weaker potency.
